Data: patent publication US20240299393A1, “SMALL MOLECULE DISRUPTORS OF PROTEIN INTERACTIONS IN HISTONE DEACETYLASE COMPLEXES” (Dana-Farber Cancer Institute, Inc., priority 2021, published 2024)
“Also recorded” adds a separate entry of the source.

Key:
[1] = test system: DOI-induced head-twitch response (HTR); experiment: DOI-induced head-twitch response assay; assay type: in vivo, mouse
Description: Adult male C57BL/6N mice (10-12 weeks old) purchased from Taconic laboratories (Bar Arbor, ME), and C57BL/6N Hdac2 cKO inhouse bred male mice (described previously in Ibi et al 2017) were used for the experimental groups (vehicle and E6R). For assays including Hdac2 cKO mice, we bred homozygous Hdac2loxPAoxP mice to the CaMKIIα-Cre transgenic line and used the Hdac2loxP/loxP:CaMKIIα-Cre (Hdac2 cKO) mice and control littermates. All animals were housed in groups of 5-6 in 500 cm^2 Plexiglas cages (Allentown, NJ) in the animal care facilities at 12 h light/dark cycle (lights on, 8:00 to 20:00) at 23° C. with food and water ad libitum. Cages contained bedding (Teklad ¼″ Corncob bedding, Envigo) and one Nestlests™ (Ancare, Bellmore, NY, USA). […] For the Hdac2 cKO group (n=5), an intraperitoneal injection (2 mg/kg; 10 μL/g) of the psychedelic drug (±)-2,5-dimethoxy-4-iodoamphetamine (DOI) (Sigma Aldrich) was delivered and HTR recorded and quantified. […] 24 h after the last injection, DOI (2 mg/kg; 10 μL/g) was injected and HTR subsequently recorded and quantified. […] HTR were recorded during both habituation and post-DOI administration for 30 min and quantified in 15 min bins. […] 24 h after the last injection, both groups received 2 mg/kg DOI, and HTR was recorded for each group as described above. […]

[2] = molecular target: T1, PAH2 domain of yeast Sin3 (Saccharomyces cerevisiae, UniProt P22579); experiment: Ligand-detected NMR (DLB, STD, CPMG-R2), yeast Sin3 PAH2; assay type: binding, S. cerevisiae; settings: 300 μM compound, 10 μM protein
T1 construct: Residues 402-473 of S. cerevisiae Sin3 (PAH2 domain) were inserted into pET28PP, pMALC2XE, and pGEX6P2; made in house; host or cells: E. coli BL21 (DE3)
T1 sequence (P22579 402-473): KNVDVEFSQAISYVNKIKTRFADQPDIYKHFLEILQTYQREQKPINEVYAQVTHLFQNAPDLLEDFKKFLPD
Experimental: Ligand-detected NMR experiments: all results were acquired using a 3 mm tube at 25° C. on a Bruker 600 MHz Avance II system equipped with a CPPTCI cryoprobe (Bruker BioSpin Corp.). In all experiments, the concentration of E6R was fixed at 300 μM (from a stock of 25 mM in deuterated DMSO) and the concentration of the protein at 10 μM. The volume of deuterated DMSO was kept constant (1.5%) in all tested samples. Right before the experiments, the compound and protein were diluted in 1×PBS containing 0.1% deuterated dithiothreitol (DTT) to a total volume of 200 μL. Samples were diluted by 5% with D2O for magnetic field lock. Spectra were acquired for ligand only, protein only, and ligand+protein. […] STD experiments [Mayer et al 2001] were acquired with 160 scans, with protein irradiation applied for 3 s at 0 ppm and −20 ppm for the on and off resonance experiments, respectively. On and off resonance spectra were collected and stored separately. One-dimensional CPMG-R2 edited experiments [Hajduk et al 1997] were collected for samples with and without proteins using seven CPMG delays (0, 25, 50, 100, 300, 500, and 800 ms) with four scans per delay. Proton spectra used to measure DLB and chemical shift perturbations in the absence and presence of the proteins were recorded with 16 scans using a recycle delay of 3 s. […]

C[C@@H](NC(=O)c1c(O)n2ccccc2nc1=O)c1ccccc1 [E6R, 4-hydroxy-2-oxo-N—((R)-1-phenylethyl)-3,4-dihydro-2H-pyrido[, 2-a]pyrimidine-3-carboxamide]
DOI-induced HTR ([1]; HDAC2 cKO mice, 50 mg/kg chronic, vs untreated HDAC2 cKO): no additive effect | DOI-induced HTR ([1]; WT mice, 50 mg/kg chronic 10 days, DOI 2 mg/kg): significantly reduced | binding to yeast Sin3 PAH2 by NMR [2]: Sin3 PAH2 binder; also recorded: bound state
